The target in the assay is Human immunodeficiency virus type 1 protease (Human immunodeficiency virus 1, UniProt Q72874). Kind of assay: Compound was evaluated for in vitro inhibition of human immunodeficiency virus type 1 (HIV-1) Protease.

Take `CCC(c1cccc(NS(=O)(=O)c2ccc(C#N)cn2)c1)C1C(=O)CC(CC)(c2cccc(NS(=O)(=O)c3ccc(C#N)cn3)c2)OC1=O` (configuration not stated) [2N-[3-(1-{2-[3-(5-cyano-2-pyridylsulfonamido)phenyl]-2-ethyl-4-hydroxy-6-oxo-3,6-dihydro-2H-5-pyranyl}propyl)phenyl]-5-cyano-2-pyridinesulfonamide]: the affinity corresponds to a Ki of 0.1 nM.
The value for `CCCC1(CCc2ccccc2)CC(=O)C(C(CC)c2cccc(NS(=O)(=O)c3ccc(C#N)cn3)c2)C(=O)O1` (configuration not stated) [5-cyano-N-(3-{1-[4-hydroxy-2-oxo-6-(2-phenylethyl)-6-propyl-5,6-dihydro-2H-pyran-3-yl]propyl}phenyl)pyridine-2-sulfonamide] was 0.1 nM.

The values above are taken from BindingDB's records for doi:10.1016/s0960-894x(98)00197-8 (Pharmacia & Upjohn, 1999).
